For one test, the target named is T1, PCTAIRE1 (Homo sapiens, UniProt Q00536).
T1 construct: purchased in-house (SGC Oxford thermal shift panel)
The test can be described thus: Thermal stability shift assay. Format: binding. As to conditions: read-out: Tm shift PCTAIRE1. The method, boiled down:
(§1)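 Thermal denaturation is measured by SyproOrange fluorescence in a real-time PCR machine. Each sample holds 2 μM protein and 10 μM compound in 10 mM HEPES pH 7.5 with 500 mM NaCl.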

The next test deals with T2, OSR1 (Homo sapiens, UniProt O95747).
T2 construct: purchased in-house (SGC Oxford thermal shift panel)
In words: Thermal stability shift assay. Format: binding. As to conditions: read-out: Tm shift OSR1. The method, boiled down:
as §1

The target of a further test is T3, MAP3K5 (Homo sapiens, UniProt Q99683).
T3 construct: purchased in-house (SGC Oxford thermal shift panel)
T3 sequence (Q99683 1-1374): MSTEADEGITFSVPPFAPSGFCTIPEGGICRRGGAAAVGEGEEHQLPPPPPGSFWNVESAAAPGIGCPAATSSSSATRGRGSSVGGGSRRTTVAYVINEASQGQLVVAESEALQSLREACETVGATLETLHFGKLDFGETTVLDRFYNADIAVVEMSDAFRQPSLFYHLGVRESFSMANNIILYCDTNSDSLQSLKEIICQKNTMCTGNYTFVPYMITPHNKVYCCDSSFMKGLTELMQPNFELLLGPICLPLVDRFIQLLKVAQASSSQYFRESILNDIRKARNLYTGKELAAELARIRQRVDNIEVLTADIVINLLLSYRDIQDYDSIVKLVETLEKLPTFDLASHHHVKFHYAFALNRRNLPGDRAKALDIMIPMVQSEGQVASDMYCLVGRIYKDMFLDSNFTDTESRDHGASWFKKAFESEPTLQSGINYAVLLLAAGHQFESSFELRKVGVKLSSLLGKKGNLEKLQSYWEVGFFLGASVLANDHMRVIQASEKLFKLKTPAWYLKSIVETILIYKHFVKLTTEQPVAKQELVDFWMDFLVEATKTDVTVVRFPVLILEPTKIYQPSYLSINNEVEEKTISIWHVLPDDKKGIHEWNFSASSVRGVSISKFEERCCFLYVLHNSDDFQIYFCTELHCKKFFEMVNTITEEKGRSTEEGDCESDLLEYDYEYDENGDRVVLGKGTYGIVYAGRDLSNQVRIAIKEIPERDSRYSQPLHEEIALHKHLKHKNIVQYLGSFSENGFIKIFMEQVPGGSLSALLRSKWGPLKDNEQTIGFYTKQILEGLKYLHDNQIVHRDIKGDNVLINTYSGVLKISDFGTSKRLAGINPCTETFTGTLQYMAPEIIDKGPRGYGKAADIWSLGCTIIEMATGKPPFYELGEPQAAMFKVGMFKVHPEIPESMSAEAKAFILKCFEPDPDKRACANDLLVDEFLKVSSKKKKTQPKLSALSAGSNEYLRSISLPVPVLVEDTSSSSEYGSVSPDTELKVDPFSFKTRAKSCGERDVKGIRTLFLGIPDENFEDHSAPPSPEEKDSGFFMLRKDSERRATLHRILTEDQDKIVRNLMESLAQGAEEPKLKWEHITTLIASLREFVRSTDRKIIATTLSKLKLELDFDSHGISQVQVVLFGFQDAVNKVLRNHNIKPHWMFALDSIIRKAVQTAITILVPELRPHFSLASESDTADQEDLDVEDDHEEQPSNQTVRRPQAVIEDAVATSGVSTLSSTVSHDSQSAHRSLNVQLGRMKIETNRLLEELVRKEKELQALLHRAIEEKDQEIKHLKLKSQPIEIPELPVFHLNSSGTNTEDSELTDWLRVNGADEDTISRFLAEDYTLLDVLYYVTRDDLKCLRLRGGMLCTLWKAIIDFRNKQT
In words: Thermal stability shift assay. Format: binding. The following applies: read-out: Tm shift MAP3K5. The method, boiled down: as §1

Test [1] has as its system flTF and asHTF mRNA in HMEC-1 cells. The test can be described thus: TF isoform mRNA expression (RT-PCR).
Method: For inhibition experiments, HMEC-1 endothelial cells were switched to EC basal medium (without fetal calf serum) for 1 hr. […] Analysis of the TF isoform mRNA expression was done 1 hr post stimulation with TNF-α and assessment of the phosphorylation state of SR proteins by western blotting was performed 2 min post induction of the cells. Positive controls were stimulated only with TNF-α, and negative controls were untreated.
In test [2] the test system is panel of 71 protein kinases. In words: Caliper mobility shift enzymatic kinase selectivity screening. The following applies: tested 0.1 nM to 10 μM; ATP at KM. Format: biochemical. The method, then: Enzymatic kinase selectivity screening was carried out using the Caliper mobility shift assay which is based on the difference in capillary electrophoresis mobility of a fluorescent tagged peptide as a result of the addition of a phosphate moiety by the studied kinase. The kinase reactions were started by addition of 4.5 μl substrate mix consisting of ATP and peptide substrate in assay buffer (50 mM HEPES [pH 7.5], 0.02% bovine serum albumin, 1 mM DTT, 0.02% Tween 20, 0.01 mM Na3VO4, 10 mM beta-glycerophosphate) and 4.5 μl enzyme solution in assay buffer. The peptide concentration was 2 μM. Concentrations for the enzyme, as well as for MgCl2 and MnCl2 were adjusted specifically to the requirements of the individual enzyme. ATP concentrations were adjusted to the KM values of the specific enzyme. After incubation for 60 min at 30°C the kinase reactions were stopped by addition of 16 μl stop solution (100 mM HEPES [pH 7.5], 5% DMSO, 0.1% coating reagent [Caliper Lifescience] 10 mM EDTA [pH 8.0], 0.015% BRIJ35). Stopped kinase reactions were analyzed in a LC3000 reader (Caliper Lifescience). Compounds were tested from 0.1 nM to 10 μM in eight steps.

Test [3] concerns phosphorylated SR proteins in HMEC-1 cells. The test can be described thus: SR protein phosphorylation, western blotting. Format: cell-based, human. The following applies: TNF-α-stimulated HMEC-1, increasing inhibitor concentration. How it is done:
Western blot analysis of samples from cell lysates of inhibited, stimulated, and unstimulated HMEC-1 cells were performed as previously described ([Szotowski et al., 2005]). For detection of phosphorylated SR proteins, monoclonal antibody mAb1H4 (Invitrogen GmbH, Karlsruhe, Germany) was used.

In test [4] the test system is panel of 106 kinases / 129 human protein kinases. In words: Thermal shift assay, kinase panel. Format: binding. As to conditions: inhibitor 10 μM. How it is done: Thermal denaturation experiments were carried out in an Mx3005p real-time PCR machine (Agilent) using a protein concentration of 2 μM and an inhibitor concentration of 10 μM. Samples were buffered in 10 mM HEPES (pH 7.5), 500 mM NaCl and a 1:1000 dilution of SyproOrange (Invitrogen). The assay and data evaluation were carried out as described ([Bullock et al., 2005])

Read-outs that look alike come from different tables or passages of the source.

T2 sequence (O95747 whole entry): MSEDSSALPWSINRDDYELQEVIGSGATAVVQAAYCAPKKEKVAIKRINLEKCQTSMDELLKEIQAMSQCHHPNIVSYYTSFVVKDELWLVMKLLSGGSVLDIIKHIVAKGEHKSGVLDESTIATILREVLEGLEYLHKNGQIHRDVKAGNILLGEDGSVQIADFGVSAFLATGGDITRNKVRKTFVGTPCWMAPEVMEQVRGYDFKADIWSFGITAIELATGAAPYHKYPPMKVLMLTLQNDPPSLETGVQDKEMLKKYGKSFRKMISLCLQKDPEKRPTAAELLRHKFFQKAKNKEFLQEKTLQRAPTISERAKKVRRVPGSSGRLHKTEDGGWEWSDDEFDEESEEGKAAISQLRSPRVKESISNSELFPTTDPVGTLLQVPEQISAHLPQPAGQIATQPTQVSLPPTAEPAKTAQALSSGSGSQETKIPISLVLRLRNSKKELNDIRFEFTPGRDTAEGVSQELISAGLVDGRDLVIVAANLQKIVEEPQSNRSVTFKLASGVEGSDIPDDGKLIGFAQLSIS
T1 sequence (Q00536 whole entry): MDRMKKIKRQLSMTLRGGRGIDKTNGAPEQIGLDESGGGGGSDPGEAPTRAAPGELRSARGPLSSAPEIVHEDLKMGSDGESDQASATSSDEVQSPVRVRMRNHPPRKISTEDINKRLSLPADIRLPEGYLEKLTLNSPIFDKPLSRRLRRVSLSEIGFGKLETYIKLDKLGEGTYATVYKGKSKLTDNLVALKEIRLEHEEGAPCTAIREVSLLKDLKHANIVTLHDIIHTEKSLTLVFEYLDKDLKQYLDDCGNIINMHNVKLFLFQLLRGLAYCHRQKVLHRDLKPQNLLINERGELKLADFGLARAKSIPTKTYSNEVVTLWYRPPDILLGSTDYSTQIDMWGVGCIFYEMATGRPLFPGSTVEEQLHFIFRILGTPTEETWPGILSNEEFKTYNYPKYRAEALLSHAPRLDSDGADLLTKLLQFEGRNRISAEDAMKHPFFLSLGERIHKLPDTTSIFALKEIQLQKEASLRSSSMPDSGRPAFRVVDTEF

`CCOC(=O)c1c(/C(C#N)=C\N)c2ccc(Cl)c(Cl)c2n1C` [KH-CB19, (E)-Ethyl 3-(2-Amino-1-Cyanovinyl)-6,7-Dichloro-1-Methyl-1H-Indole-2-Carboxylate]: the ΔTm at 10 µM came to 0.4 °C on PCTAIRE1, 0.3 °C at OSR1 and 0.8 °C on MAP3K5. Further, in test [1] (HMEC-1, 10 μM inhibitor, 10 ng/ml TNF-α, 1 hr post stimulation), the “TNF-α-induced mRNA expression of flTF and asHTF” value was “lowered TNF-α-induced expression of both TF mRNA splice variants to baseline”. The “Basal mRNA expression of flTF and asHTF” value in test [1] (resting HMEC-1, 10 μM inhibitor) was “significantly reduced the basal expression of flTF as well as asHTF”. In addition, the “Inhibition of panel of 71 protein kinases” value in test [2] is given as “No additional kinases from the panel were inhibited”. Also, the “Dose response of SRp75 and SRp55 phosphorylation” value in test [3] is “significantly reduced at increasing concentration of the inhibitor”.
`NC1=NC(=O)/C(=C2\CCNC(=O)c3[nH]c(Br)cc32)N1` [Hymenialdisine, hymenialdisine, reference compound]: the ΔTm at 10 µM at PCTAIRE1 (inhibitor 10 μM) came to 0.7 °C; on OSR1 (inhibitor 10 μM) it was 0.5 °C; at MAP3K5 (inhibitor 10 μM), 8.7 °C.
As for `CCOC(=O)c1c(C(C#N)=CN)c2ccc(Cl)c(Cl)c2n1C` (mixture of isomers) [KH-CB20, (E/Z)-Ethyl 3-(2-Amino-1-Cyanovinyl)-6,7-Dichloro-1-Methyl-1H-Indole-2-Carboxylate], the ΔTm at 10 µM was 0.1 °C on PCTAIRE1, 0.3 °C at OSR1 and 0.5 °C at MAP3K5.
On to `Cn1c2c(Cl)c(Cl)ccc2c2c(C#N)c[nH]c(=O)c21` [compound 3, 7,8-Dichloro-9-Methyl-1-Oxo-2,9-Dihydro-1H-Pyrido[3,4-b]Indole-4-Carbonitrile], for which the ΔTm at 10 µM on PCTAIRE1 (inhibitor 10 μM) was determined as 0.4 °C; on OSR1 (inhibitor 10 μM), 0.3 °C; at MAP3K5 (inhibitor 10 μM) it was 0.8 °C. For the same compound, in test [4], the “Interaction in thermal shift screen, panel of 106 kinases” value was “showed only interaction with CLK family members”.
The corresponding values for `CCOC(=O)c1c(C(C#N)=CN(C)C)c2ccc(Cl)c(Cl)c2n1C` (mixture of isomers) [compound 2, (E/Z)-Ethyl 6,7-Dichloro-3-[1-Cyano-2-(Dimethylamino)Vinyl]-1-Methyl-1H-Indole-2-Carboxylate] are 0.4 °C, 0 °C, 0.2 °C and “showed only interaction with CLK family members”.

The record behind these values is PMC3145970, “Specific CLK Inhibitors from a Novel Chemotype for Regulation of Alternative Splicing” (Chemistry & Biology, 2011).
